# Results taken from patent US9163021B2, “Pyrrolo[3,2-c]pyridine tropomyosin-related kinase inhibitors” (Pfizer Limited, priority 2012, dated 2015).
# Molecular target: TRKA (Homo sapiens (Human), UniProt P04629)
# Assay: Isolated TRK enzyme assay (HTRF KinEASE-TK), PV3144 TrkA enzyme assay
# Format: biochemical
# Conditions: arithmetic mean where more than one reading
# Outline: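 Kinase (recombinant His-TrkA cytoplasmic domain, ATP-preactivated 20 min) met compound 20 min, then biotinylated TK substrate (1 µM final) with Mg2+/DTT buffer; HTRF detection.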
# Chain of TRKA (P04629 441-796): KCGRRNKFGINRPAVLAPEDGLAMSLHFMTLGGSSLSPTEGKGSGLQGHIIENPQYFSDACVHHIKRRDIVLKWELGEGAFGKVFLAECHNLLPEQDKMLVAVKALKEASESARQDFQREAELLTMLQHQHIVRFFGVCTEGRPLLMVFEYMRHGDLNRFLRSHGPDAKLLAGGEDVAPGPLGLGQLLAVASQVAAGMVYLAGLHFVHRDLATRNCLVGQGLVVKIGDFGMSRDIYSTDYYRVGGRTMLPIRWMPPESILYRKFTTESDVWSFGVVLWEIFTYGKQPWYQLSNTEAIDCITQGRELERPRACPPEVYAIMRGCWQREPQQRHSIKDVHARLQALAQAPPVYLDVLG
row,Structure (SMILES),IC50 [nM]
1,"CC(C)n1cc(C(=O)c2ccnc(NC(=O)Cc3ccc(Cl)cc3)c2)c2cnccc21 [Example 103, 2-(4-chlorophenyl)-N-(4-{[1-(propan-2-yl)-1H-pyrrolo[3,2-c]pyridin-3-yl]carbonyl}pyridin-2yl)acetamide]",15.2
2,"Cc1cc(C(F)(F)F)nn1CC(=O)Nc1cc(C(=O)c2cn(C(C)C)c3ccncc23)ccn1 [Example 104, 2-[5-methyl-3-(trifluoromethyl)-1H-pyrazol-1-yl]-N-(4-{[1-(propan-2-yl)-1H-pyrrolo[3,2-c]pyridin-3-yl]carbonyl}pyridin-2-yl)acetamide]",13.8
3,"CC(C)n1cc(C(=O)c2ccnc(NC(=O)Cc3ccccc3Cl)c2)c2cnccc21 [Example 105, 2-(2-chlorophenyl)-N-(4-{[1-(propan-2-yl)-1H-pyrrolo[3,2-c]pyridin-3-yl]carbonyl}pyridin-2-yl)acetamide]",108
4,"CC(C)n1cc(C(=O)c2ccnc(NC(=O)Cc3ccc(F)cc3F)c2)c2cnccc21 [Example 106, 2-(2,4-difluorophenyl)-N-(4-{[1-(propan-2-yl)-1H-pyrrolo[3,2-c]pyridin-3-yl]carbonyl}pyridin-2-yl)acetamide]",17.9
5,"CC(C)n1cc(C(=O)c2ccnc(NC(=O)Cc3ccccc3)c2)c2cnccc21 [Example 107, 2-phenyl-N-(4-{[1-(propan-2-yl)-1H-pyrrolo[3,2-c]pyridin-3-yl]carbonyl}pyridin-2-yl)acetamide]",64
6,"COc1cccc(CC(=O)Nc2cc(C(=O)c3cn(C(C)C)c4ccncc34)ccn2)c1 [Example 108, 2-(3-methoxyphenyl)-N-(4-{[1-(propan-2-yl)-1H-pyrrolo[3,2-c]pyridin-3-yl]carbonyl}pyridin-2-yl)acetamide]",640
7,"Cc1ccn(CC(=O)Nc2cc(C(=O)c3cn(C(C)C)c4ccncc34)ccn2)n1 [Example 109, 2-(3-methyl-1H-pyrazol-1-yl)-N-(4-{[1-(propan-2-yl)-1H-pyrrolo[3,2-c]pyridin-3-yl]carbonyl}pyridin-2-yl)acetamide]",87.1
8,"CC(C)n1cc(C(=O)c2ccnc(NC(=O)Cc3cnccn3)c2)c2cnccc21 [Example 110, N-(4-{[1-(propan-2-yl)-1H-pyrrolo[3,2-c]pyridin-3-yl]carbonyl}pyridin-2-yl)-2-(pyrazin-2-yl)acetamide]",3330
9,"CC(C)c1ccnn1CC(=O)Nc1cc(C(=O)c2cn(C(C)C)c3ccncc23)ccn1 [Example 111, 2-[5-(propan-2-yl)-1H-pyrazol-1-yl]-N-(4-{[1-(propan-2-yl)-1H-pyrrolo[3,2-c]pyridin-3-yl]carbonyl}pyridin-2-yl)acetamide]",96.8
10,"Cc1nc(C)n(CC(=O)Nc2cc(C(=O)c3cn(C(C)C)c4ccncc34)ccn2)n1 [Example 112, 2-(3,5-dimethyl-1H-1,2,4-triazol-1-yl)-N-(4-{[1-(propan-2-yl)-1H-pyrrolo[3,2-c]pyridin-3-yl]carbonyl}pyridin-2-yl)acetamide]",5110
11,"Cc1cc(C(C)C)nn1CC(=O)Nc1cc(C(=O)c2cn(C(C)C)c3ccncc23)ccn1 [Example 113, 2-[5-methyl-3-(propan-2-yl)-1H-pyrazol-1-yl]-N-(4-{[1-(propan-2-yl)-1H-pyrrolo[3,2-c]pyridin-3-yl]carbonyl}pyridin-2-yl)acetamide]",20.4
12,"Cc1cn(CC(=O)Nc2cc(C(=O)c3cn(C(C)C)c4ccncc34)ccn2)nn1 [Example 114, 2-(4-methyl-1H-1,2,3-triazol-1-yl)-N-(4-{[1-(propan-2-yl)-1H-pyrrolo[3,2-c]pyridin-3-yl]carbonyl}pyridin-2-yl)acetamide]",289
13,"CC(C)n1cc(C(=O)c2cncc(NC(=O)Cc3ccc(F)cc3)c2)c2cnccc21 [Example 115, 2-(4-fluorophenyl)-N-(5-{[1-(propan-2-yl)-1H-pyrrolo[3,2-c]pyridin-3-yl]carbonyl}pyridin-3-yl)acetamide]",42
